Here are results for two compounds from US5962314A, “Calcium receptor-active molecules” (priority 1997, dated 1999).

One assay concerns serum calcium. As to the kind of experiment: hypocalcemic response in thyroidectomized rats. Type of assay: in vivo, rat. The note with it: 3 to 100 mg/kg p.o. An excerpt:
In subsequent studies, rats received a thyroidectomy (parathyroid glands intact). This surgical procedure effectively removed the C-cells secreting calcitonin and therefore enabled the relative contributions of PTH and calcitonin to the hypocalcemic effect of this compound to be determined. […] The only difference was that the rate of onset of the hypqcalcemic response was somewhat delayed in thyroidectomized animals. […] Stimulatory effects of this compound on calcitonin secretion increases the rate of onset, but not the extent, of hypocalcemia.

Assay [1] addresses T1, parathyroid cell calcium receptor (Bos taurus, UniProt P35384).
T1 sequence (P35384 20-1085): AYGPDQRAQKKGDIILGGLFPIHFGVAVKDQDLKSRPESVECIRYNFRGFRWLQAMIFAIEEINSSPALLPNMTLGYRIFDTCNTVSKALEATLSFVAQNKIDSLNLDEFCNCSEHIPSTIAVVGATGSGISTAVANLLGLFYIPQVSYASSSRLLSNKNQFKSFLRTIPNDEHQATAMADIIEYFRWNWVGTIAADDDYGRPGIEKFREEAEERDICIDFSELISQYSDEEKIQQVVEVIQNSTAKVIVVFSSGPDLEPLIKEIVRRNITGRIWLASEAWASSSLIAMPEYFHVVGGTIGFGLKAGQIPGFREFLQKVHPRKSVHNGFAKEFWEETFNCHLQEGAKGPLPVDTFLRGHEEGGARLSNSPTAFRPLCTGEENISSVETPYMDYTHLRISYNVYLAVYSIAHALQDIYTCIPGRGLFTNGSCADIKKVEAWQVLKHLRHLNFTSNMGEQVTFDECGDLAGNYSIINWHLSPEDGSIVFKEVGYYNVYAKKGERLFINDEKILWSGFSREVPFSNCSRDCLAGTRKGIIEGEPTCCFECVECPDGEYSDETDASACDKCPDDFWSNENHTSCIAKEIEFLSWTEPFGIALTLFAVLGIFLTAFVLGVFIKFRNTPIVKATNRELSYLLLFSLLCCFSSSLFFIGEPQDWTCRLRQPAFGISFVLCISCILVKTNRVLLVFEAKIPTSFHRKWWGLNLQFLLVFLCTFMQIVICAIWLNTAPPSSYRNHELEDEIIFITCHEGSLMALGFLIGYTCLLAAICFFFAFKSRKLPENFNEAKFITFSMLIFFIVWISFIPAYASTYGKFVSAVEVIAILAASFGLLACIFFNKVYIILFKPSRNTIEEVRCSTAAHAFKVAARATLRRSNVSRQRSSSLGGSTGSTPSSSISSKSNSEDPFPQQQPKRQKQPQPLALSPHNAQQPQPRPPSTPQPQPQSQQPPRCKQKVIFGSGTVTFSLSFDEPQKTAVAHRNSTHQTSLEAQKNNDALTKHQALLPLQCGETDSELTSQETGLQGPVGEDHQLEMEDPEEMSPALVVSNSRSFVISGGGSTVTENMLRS
Description: Cl- current in Xenopus oocytes injected with bovine parathyroid cell mRNA. The note with it: oocytes expressing parathyroid calcium receptor; fendiline 100 μM. Set-up: Whole pieces of gland were used to prepare mRNA that directs the expression of the calcium receptor in Xenopus oocytes; expressed in transfected cells; host or cells: Xenopus laevis oocytes injected with parathyroid poly(A)+ mRNA. Type of assay: cell-based. Here is the method: Following incubation, an oocyte was placed into a 100-μl plastic chamber and superfused with MBS at a flow rate of 0.5 ml/min using a peristaltic pump. Test molecules or inorganic polycations were added by rapidly moving the tubing into different buffers. Recording and current-passing electrodes were constructed from thin-wall capillary tubing pulled to a resistance of 1-3 Mohms and filled with 3 M KCl. […] Currents were recorded directly onto a strip chart recorder.

Assay [2] concerns the target T2, parathyroid cell calcium receptor (Homo sapiens, UniProt P41180).
T2 construct: Dissociated parathyroid cells were prepared from a parathyroid adenoma obtained by surgery from a patient with primary hyperparathyroidism; endogenous in cells; host or cells: human parathyroid cells (adenoma or hyperplastic glands from patients)
T2 sequence (P41180 20-1078): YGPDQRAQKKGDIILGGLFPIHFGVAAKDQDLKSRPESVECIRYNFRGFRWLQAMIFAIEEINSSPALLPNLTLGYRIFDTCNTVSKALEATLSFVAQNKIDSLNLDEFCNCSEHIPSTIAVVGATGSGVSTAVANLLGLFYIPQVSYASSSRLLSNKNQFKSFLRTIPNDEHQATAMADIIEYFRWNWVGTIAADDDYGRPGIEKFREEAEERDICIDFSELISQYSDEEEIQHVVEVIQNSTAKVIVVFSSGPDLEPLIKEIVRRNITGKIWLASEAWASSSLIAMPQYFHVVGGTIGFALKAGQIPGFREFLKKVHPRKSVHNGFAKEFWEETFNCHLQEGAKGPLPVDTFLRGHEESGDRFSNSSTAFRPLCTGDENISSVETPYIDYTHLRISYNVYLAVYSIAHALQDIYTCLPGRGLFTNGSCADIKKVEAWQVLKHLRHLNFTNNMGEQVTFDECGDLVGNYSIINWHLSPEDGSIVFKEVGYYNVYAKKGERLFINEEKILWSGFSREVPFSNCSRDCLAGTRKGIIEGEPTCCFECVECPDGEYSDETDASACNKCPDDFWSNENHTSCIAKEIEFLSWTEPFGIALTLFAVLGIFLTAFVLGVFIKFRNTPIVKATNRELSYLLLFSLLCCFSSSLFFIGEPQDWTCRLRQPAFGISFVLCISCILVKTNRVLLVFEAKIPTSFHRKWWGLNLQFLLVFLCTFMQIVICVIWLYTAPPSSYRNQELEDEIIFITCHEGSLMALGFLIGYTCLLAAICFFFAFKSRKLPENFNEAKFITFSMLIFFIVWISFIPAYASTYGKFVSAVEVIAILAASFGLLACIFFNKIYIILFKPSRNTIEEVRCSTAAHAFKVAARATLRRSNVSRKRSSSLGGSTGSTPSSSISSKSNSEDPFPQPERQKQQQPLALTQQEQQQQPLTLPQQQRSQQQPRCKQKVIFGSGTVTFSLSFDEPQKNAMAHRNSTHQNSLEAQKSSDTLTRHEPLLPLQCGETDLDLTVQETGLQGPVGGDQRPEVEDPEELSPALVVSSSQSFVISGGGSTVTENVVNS
Description: mobilization of intracellular Ca2+ in human parathyroid cells. The format is cell-based. Particulars: neomycin B 10 or 20 μM, spermine 300 μM, Mg2+ 10 mM.
Description: Human parathyroid glands, were obtained from patients undergoing surgical removal of parathyroid tissue for primary or uremic hyperparathyroidism (uremic HPT), and were treated similarly to bovine tissue.
The cells were then pelleted, resuspended in the same buffer, but lacking the ester, and incubated a further 15 minutes at 37° C. The cells were subsequently washed twice with PCB containing 0.5 mM CaCl2 and 0.5% BSA and maintained at room temperature (about 20° C.). Immediately before use, the cells were diluted five-fold with prewarmed 0.5 mM CaCl2 -PCB to obtain a final BSA concentration of 0.1%. The concentration of cells in the cuvette used for fluorescence recording was 1-2×10^6 /ml.

For the compound `COc1cccc([C@@H](C)NCCCc2ccccc2Cl)c1` [NPS R-568, (R)-(+)-N-[3-(2-chlorophenyl)propyl]-α-methyl-3-methoxybenzylamine], in the assay with serum calcium, the “hypocalcemic response in thyroidectomized rats” value is “hypocalcemic response equal in magnitude to that produced in sham-operated animals”. Moreover, in assay [1], the “effect on Cl- current / intracellular Ca2+” value is “potent molecule active on Xenopus oocytes expressing the parathyroid cell calcium receptor”.
In the case of `NC[C@@H]1O[C@H](O[C@H]2[C@@H](O)[C@H](O[C@@H]3[C@@H](O)[C@H](N)C[C@H](N)[C@H]3O[C@H]3O[C@H](CN)[C@@H](O)[C@H](O)[C@H]3N)O[C@@H]2CO)[C@H](N)[C@@H](O)[C@@H]1O` [Neomycin], the “effect on [Ca2+]i in human parathyroid cells” value in assay [2] is “large increase in [Ca^2+ ]i”; in assay [2] (listed as Neomycin B) it was “not only a transient, but additionally a steady-state increase in [Ca^2+ ]i”; in assay [2] (listed as neomycin B) it was “transient and sustained increases in [Ca^2+ ]i”.
